Publication PMC11360180, “Enhancement of Antimicrobial Function by L/D-Lysine Substitution on a Novel Broad-Spectrum Antimicrobial Peptide, Phylloseptin-TO2: A Structure-Related Activity Research Study” (Pharmaceutics, 2024)
Where no end group is shown, it is not given here.

Tests used:
C. albicans = format: cell-based, Candida albicans; conditions: 24 h
Excerpt: (§1) Seven microorganism strains were used to preliminarily evaluate the antimicrobial activity of PSTO2 and its analogues, including Staphylococcus aureus (S. aureus) (ATCC® 6538), methicillin-resistant Staphylococcus aureus (MRSA) (NCTC® 12493), Enterococcus faecalis (E. faecalis) (NCTC® 12697), E. coli (ATCC® 8739), Klebsiella pneumonia (K. pneumonia) (ATCC® 43816), Pseudomonas aeruginosa (P. aeruginosa) (ATCC® CRM 9027), Acinetobacter baumanni (A. baumanni) (BAA® 747), and Candida albicans (C. albicans) (ATCC® 10231). In this study, the strains were cultured in Mueller–Hinton broth (MHB), nutrient broth (NB), and yeast–peptone–dextrose broth (YPD-B) correspondingly at 37 °C, with shaking at 120 rpm. Each peptide was dissolved from 128 μM to 1 μM and mixed with the bacterium at 5 × 10^5 CFU/mL. In this process, bacteria with culture medium were used as the growth control group; PBS was set up as the vehicle control group; sterile culture medium was used as the blank control group; and Norfloxacin at a concentration of 2 mg/mL and amphotericin B at a concentration of 1 mg/mL were set up as the positive control group for bacteria and fungi, respectively.
(§2) After being incubated for 24 h, a Synergy HT plate reader (Bio-Tek, Shoreline, WA, USA) was used to detect the absorbance of each well in the 96-well plate at λ = 550 nm. The concentration at which no visible turbidity could be recorded was the MIC value. Beginning from the MIC value, 10 µL of solution in each clear well was dropped on the sterile agar plates. The plate was checked the next day for colony formation, and the lowest concentration at which no colony growing was recorded as an MBC value.

[1] = tested on: P. aeruginosa (ATCC 9027); format: cell-based, Pseudomonas aeruginosa; conditions: ATCC 9027, 24 h
Excerpt: as §1, §2

[2] = tested on: K. pneumonia (ATCC 43816); format: cell-based, Klebsiella pneumonia; conditions: ATCC 43816, 24 h
Excerpt: as §1, §2

S. aureus (ATCC 6538) = format: cell-based, Staphylococcus aureus; conditions: ATCC 6538, 24 h
Excerpt: as §1, §2

HaCat = format: cell-based; conditions: 24 h
Description: (§3) The percentage of cancer cell survival after being treated with peptides was assessed with 3-(4,5-dimethylthiazol-2-yl-)-2,5-diphenyltetrazolium bromide (MTT). The principle is the reduction process of the yellow tetrazolium to DMSO-soluble formazan crystals caused by the metabolic capability of living cells. All the cancerous and normal cells were obtained from the American Type Culture Collection (Rockville, VA, USA). Human lung cancer NCI-H838 and NCI-H460 were cultured in Roswell Park Memorial Institute (RPMI)-1640 medium (Gibco, Paisley, UK) and mixed with 10% (v/v) fetal bovine serum (FBS) (Gibco, Campinas, Brazil) and 1% penicillin–streptomycin (Gibco, Grand Island, NY, USA) 89/10/1 v/v/v). U251MG and MCF-7 were cultured in Dulbecco’s Modified Eagle medium (DMEM) (Gibco, Paisley, UK) and mixed with 10% FBS and 1% penicillin–streptomycin. HCT 116 was cultured in McCoy’s 5A (modified) medium (Gibco, Paisley, UK) and mixed with 10% FBS and 1% penicillin–streptomycin. MRC-5 and HaCat were cultured in Minimum Essential Medium (MEM) (Gibco, Paisley, UK) and mixed with 10% FBS and 1% penicillin–streptomycin. Cells were cultured and seeded in a 96-well plate at a density of 8000 cells/well with the corresponding medium and incubated for 24 h at 37 °C with 5% CO2. After 24 h of incubation, the cells were starved with a serum-free medium for 4 h at 37 °C. Then, the cells were incubated with different concentrations of peptide solution in a serum-free medium from 1 nM to 100 µM at 37 °C for 24 h. Meanwhile, triton X-100 (0.1%) (Sigma-Aldrich, St. Louis, MO, USA) and PBS were chosen as positive and negative controls. After 10 µL of MTT (5 mg/mL) was added to each well away from light and incubated at 37 °C for 2 h, the formazan generated by mitochondria was dissolved with DMSO. The absorbance was detected at a wavelength of 570 nm by a Synergy HT plate reader (Bio-Tek, Shoreline, WA, USA).

MRC-5 = format: cell-based; conditions: 24 h
Description: as §3

horse red blood cells = format: cell-based
Description: To assess the haemolytic activity of PSTO2 and its analogues, 2% fresh defibrinated horse red blood cells (TCS Biosciences Ltd., Buckingham, UK) were acquired after being washed and resuspended in sterile PBS. Each peptide was dissolved in PBS to prepare solutions with concentrations ranging from 2 µM to 1024 µM. Subsequently, 100 µL of each peptide solution was mixed with 100 µL of the red blood cell suspension. The red blood cells treated with 1% triton X-100 and sterile PBS in equivalent volumes were set up as the positive and negative control groups, respectively. Then, all the samples were incubated at 37 °C for 2 h. Thereafter, the samples were centrifuged at 900× g for 10 min. Finally, 100 µL of supernatant of each sample was transferred into a 96-well plate, and the absorbance was recorded by a Synergy HT plate reader (Bio-Tek, Shoreline, WA, USA) at a wavelength of 570. The following equation was used to calculate haemolysis activity:Haemolysis activity = (Sample absorbance − Ab)/(Ap − Ab) × 100% where Ab refers to the mean value of absorbance of the negative control (incubated with PBS only), and Ap refers to the mean absorbance value of the positive control (incubated with triton X-100).

A. baumannii (BAA 747) = format: cell-based, Acinetobacter baumanni; conditions: BAA 747, 24 h
Excerpt: as §1, §2

[3] = tested on: MRSA (ATCC 12493) biofilm; format: cell-based, methicillin-resistant Staphylococcus aureus; conditions: ATCC 12493, 24 h
Description: To test the anti-biofilm ability of PSTO2 and its analogues, three types of microorganisms (S. aureus ATCC® 6538, E. coli ATCC® 8739, and MRSA NCTC® 12493) were chosen. Tryptic soy broth (TSB) and Lysogeny broth (LB) were used to culture microorganisms. The peptide was dissolved in an autoclaved PBS solution and diluted into concentrations ranging from 51,200 µM to 100 µM. One µL of peptide solution of each concentration was added into a 96-well plate with 100 µL bacterium at 5 × 10^5 CFU/mL. The plate was incubated at 37 °C for 24 h, with shaking at 200 rpm. After overnight incubation, the planktonic bacteria were washed up. Then, 100 µL of methanol was used to fix the biofilms onto the bottom, and 100 µL of 0.1% crystal violet solution (Sigma-Aldrich, Gillingham, UK) was added to each well to stain the biofilms. After drying, 160 µL of acetic acid (30% in deionised water, Sigma-Aldrich, UK) was added to each well to dissolve the shaded parts. The absorbance was detected with the Synergy HT plate reader at λ = 595 nm.
For the MBEC assay, 100 µL of the bacterium of 5 × 10^5 CFU/mL was transferred into an empty 96-well plate, and the plate was incubated at 37 °C for 24 h to obtain the biofilms primarily. Then, the peptide solution from 512 µM to 1 µM was transferred into a corresponding well, followed by 24 h incubation at 37 °C, with shaking at 200 rpm. After this, the plate was handled using the identical method to the plate in the MBIC assay, and the absorbance of each well was detected with the Synergy HT plate reader at λ = 595 nm. The minimum concentration at which the peptide can eradicate the existing biofilm was recorded as the MBEC value.

U251MG = format: cell-based, human; conditions: 24 h
Description: as §3

NCI-H838 = format: cell-based, human; conditions: 24 h
Description: as §3

NCI-H460 = format: cell-based, human; conditions: 24 h
Description: as §3

MCF-7 = format: cell-based, human; conditions: 24 h
Description: as §3

Substance: FLSLIPHAISAVSALAKHL-NH2 [PSTO2, phylloseptin-TO2]
- MBC (C. albicans): 128 µM
- MIC (C. albicans): 32 µM
- MBC [1]: >128 µM
- MIC [1]: >128 µM
- MBC [2]: 128 µM
- MIC [2]: 64 µM
- MBC (S. aureus (ATCC 6538)): 4 µM
- IC50 (HaCat): 70.58 µM
- IC50 (MRC-5): 73.22 µM
- HC10 (horse red blood cells): 21.78
- MBC (A. baumannii (BAA 747)): >128 µM
- MIC (A. baumannii (BAA 747)): >128 µM
- MBIC [3]: 4 µM
- IC50 (U251MG): 84 µM
- IC50 (NCI-H838): 85.8 µM
- IC50 (NCI-H460): 78.3 µM
- IC50 (MCF-7): 23.1 µM
